Experimental data from ChEMBL document CHEMBL1150260 (J Med Chem, 2008).

Legend:
Rattus norvegicus [1] = organism: Rattus norvegicus; assay: Selectivity for rat dopamine D3 receptor over rat dopamine D2L receptor
D(3) dopamine receptor [2] = molecular target: D(3) dopamine receptor (Rattus norvegicus, UniProt P19020); assay: biochemical
Description: Displacement of [3H]spiperone from rat dopamine D3 receptor expressed in HEK293 cells

D(2) dopamine receptor [3] = molecular target: D(2) dopamine receptor (Rattus norvegicus, UniProt P61169); assay: biochemical
Description: Displacement of [3H]spiperone from rat dopamine D2L receptor expressed in HEK293 cells

D(2) dopamine receptor [4] = molecular target: T1, D(2) dopamine receptor (Homo sapiens, UniProt P14416); assay: Agonist activity at human dopamine D2L receptor expressed in CHO cells assessed as stimulation of [35S]GTPgammaS binding relative to dopamine; assay type: functional, cell-based
Rattus norvegicus [5] = assay: Induction of rotational activity in subcutaneously dosed 6-hydroxydopamine unilaterally lesioned rat assessed as contralateral rotation; assay type: functional, organism-based
Rattus norvegicus [6] = assay: Induction of rotational activity in 6-hydroxydopamine unilaterally lesioned rat assessed as number of contralateral rotation at 5 umol/kg, sc after […]; assay type: functional
Rattus norvegicus [7] = assay: Induction of rotational activity in 6-hydroxydopamine unilaterally lesioned rat assessed as number of contralateral rotation at 2.5 umol/kg, sc after 8 hrs; assay type: functional
D(2) dopamine receptor [8] = molecular target: T1, D(2) dopamine receptor
D(3) dopamine receptor [9] = molecular target: D(3) dopamine receptor (Homo sapiens, UniProt P35462)
Sequence of D(3) dopamine receptor (Homo sapiens, UniProt P35462) (P35462 whole entry): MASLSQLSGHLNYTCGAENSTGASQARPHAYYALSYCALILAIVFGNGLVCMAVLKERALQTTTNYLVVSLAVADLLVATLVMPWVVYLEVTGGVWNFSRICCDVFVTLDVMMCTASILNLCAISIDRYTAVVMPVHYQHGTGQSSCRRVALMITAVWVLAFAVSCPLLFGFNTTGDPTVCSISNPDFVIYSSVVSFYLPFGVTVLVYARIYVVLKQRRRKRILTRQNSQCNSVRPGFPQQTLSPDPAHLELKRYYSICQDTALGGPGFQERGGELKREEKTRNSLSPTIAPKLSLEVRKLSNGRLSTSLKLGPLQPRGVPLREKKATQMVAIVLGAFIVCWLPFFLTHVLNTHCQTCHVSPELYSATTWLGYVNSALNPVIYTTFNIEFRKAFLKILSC
Description: Agonist activity at human dopamine D3 receptor expressed in mouse ATt-20 cells assessed as stimulation of [35S]GTPgammaS binding

Sequence of D(2) dopamine receptor (Rattus norvegicus, UniProt P61169) (P61169 whole entry): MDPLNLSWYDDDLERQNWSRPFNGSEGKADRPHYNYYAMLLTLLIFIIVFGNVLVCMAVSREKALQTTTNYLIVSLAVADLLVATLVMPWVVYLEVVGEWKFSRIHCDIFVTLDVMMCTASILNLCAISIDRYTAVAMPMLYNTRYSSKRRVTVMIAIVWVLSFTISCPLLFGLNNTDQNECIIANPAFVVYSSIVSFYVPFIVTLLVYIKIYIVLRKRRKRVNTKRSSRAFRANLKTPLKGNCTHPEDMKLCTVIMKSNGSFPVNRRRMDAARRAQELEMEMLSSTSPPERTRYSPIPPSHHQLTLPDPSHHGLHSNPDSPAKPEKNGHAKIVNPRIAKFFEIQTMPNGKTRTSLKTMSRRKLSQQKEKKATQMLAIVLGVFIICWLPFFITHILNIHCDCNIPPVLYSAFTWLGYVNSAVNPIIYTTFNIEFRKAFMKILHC
Sequence of D(3) dopamine receptor (Rattus norvegicus, UniProt P19020) (P19020 whole entry): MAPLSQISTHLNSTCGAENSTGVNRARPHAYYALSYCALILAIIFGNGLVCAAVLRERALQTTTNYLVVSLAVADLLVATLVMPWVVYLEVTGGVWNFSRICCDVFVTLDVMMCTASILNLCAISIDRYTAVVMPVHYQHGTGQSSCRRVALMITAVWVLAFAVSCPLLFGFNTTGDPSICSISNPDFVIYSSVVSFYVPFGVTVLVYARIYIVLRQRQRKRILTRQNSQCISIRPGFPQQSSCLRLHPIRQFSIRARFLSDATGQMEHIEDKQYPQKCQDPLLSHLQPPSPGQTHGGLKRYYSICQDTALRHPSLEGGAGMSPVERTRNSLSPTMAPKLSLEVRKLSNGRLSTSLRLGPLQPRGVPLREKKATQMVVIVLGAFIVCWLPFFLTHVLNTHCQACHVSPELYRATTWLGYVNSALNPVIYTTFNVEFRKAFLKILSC
T1 sequence (P14416 whole entry): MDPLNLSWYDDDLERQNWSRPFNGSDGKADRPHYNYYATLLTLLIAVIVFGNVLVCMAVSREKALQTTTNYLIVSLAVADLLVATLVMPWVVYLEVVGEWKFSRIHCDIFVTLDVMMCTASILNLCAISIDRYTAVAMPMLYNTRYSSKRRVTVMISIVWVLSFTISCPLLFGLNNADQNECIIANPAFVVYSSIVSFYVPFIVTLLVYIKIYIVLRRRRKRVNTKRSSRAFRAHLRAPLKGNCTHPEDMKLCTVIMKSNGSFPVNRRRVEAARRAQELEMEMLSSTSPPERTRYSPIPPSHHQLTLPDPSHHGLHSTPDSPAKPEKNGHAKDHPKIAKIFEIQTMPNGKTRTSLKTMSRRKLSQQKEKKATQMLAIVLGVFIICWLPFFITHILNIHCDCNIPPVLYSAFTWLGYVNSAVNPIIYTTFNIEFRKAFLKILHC

Compound | Ratio Ki (Rattus norvegicus [1]) | Ki (D(3) dopamine receptor [2]) [nM] | Ki (D(2) dopamine receptor [3]) [nM] | other results
CCCN(CCN1CCN(c2ccccc2)CC1)C1CCc2[nH]ncc2C1 (stereo not drawn) | 39.3 | 46.7 | 1830 | –
CCCN(CCN1CCN(c2cccc(Cl)c2Cl)CC1)C1CCc2nc(N)sc2C1 (stereo in doubt; (+)-33) [listing 1 of 2 here] | 3.68 | – | – | –
CCCN(CCCCN1CCN(c2ccccc2)CC1)C1CCc2nc(N)sc2C1 (stereo not drawn) | 62 | 12.4 | 769 | –
CCCN(CCN1CCN(c2cccc(Cl)c2Cl)CC1)C1CCc2nc(N)sc2C1 (stereo in doubt; 6c) [listing 1 of 2 here] | 37.6 | – | – | –
CCCN(CCN1CCN(c2ccccc2OC)CC1)C1CCc2nc(N)sc2C1 (single isomer, unassigned; (-)) [listing 1 of 2 here] | – | 7.01 | 288 | –
CCCN(CCN1CCN(c2cccc(Cl)c2Cl)CC1)C1CCc2nc(N)sc2C1 (stereo in doubt; (-)-33) [listing 1 of 2 here] | 31.6 | – | – | Emax (D(2) dopamine receptor [4]): 78.8%; Activity (Rattus norvegicus [5]): Dose-dependent effect
CCCN(CCN1CCN(c2ccccc2)CC1)C1CCc2nocc2C1 (stereo not drawn) | 3.2 | 254 | 813 | –
CCCN(CCC)C1CCc2ccc(O)cc2C1 (stereo not drawn) | – | – | – | Emax (D(2) dopamine receptor [4]): 61.4%
CCCN(CCN1CCN(c2ccccc2OC)CC1)C1CCc2nc(N)sc2C1 (stereo in doubt; 6b) [listing 1 of 2 here] | 32.6 | – | – | –
CCCN(CCN1CCN(c2ccc(-c3ccccc3)cc2)CC1)C1CCc2nc(N)sc2C1 (single isomer, unassigned; (-)) | 253 | 0.92 | 264 | Emax (D(2) dopamine receptor [4]): 119%; Activity (Rattus norvegicus [5]): Dose-dependent effect; Activity (Rattus norvegicus [6]): 3866; Activity (Rattus norvegicus [7]): 2092; EC50 (D(2) dopamine receptor [8]): 19.9 nM; EC50 (D(3) dopamine receptor [9]): 0.085 nM
CCCN(CCN1CCN(c2ccccc2)CC1)C1CCc2nc(N)sc2C1 (stereo in doubt; 6a) [listing 1 of 2 here] | 107 | – | – | –
CCCN(CCN1CCN(c2ccccc2OC)CC1)C1CCc2nc(N)sc2C1 (single isomer, unassigned; (+)) [listing 1 of 2 here] | – | 101 | 243 | –
CCCN(CCN1CCN(c2ccccc2OC)CC1)C1CCc2nc(N)sc2C1 (single isomer, unassigned; (-)) [listing 2 of 2 here] | 41.1 | – | – | –
CCCN(CCN1CCN(c2ccccc2)CC1)C1CCc2nc(N)sc2C1 (stereo in doubt; (-)-31) [listing 1 of 2 here] | – | 4.15 | 243 | –
CCCN(CCN1CCN(c2cccc(Cl)c2Cl)CC1)C1CCc2nc(N)sc2C1 (stereo in doubt; 6c) [listing 2 of 2 here] | – | 1.82 | 68.4 | –
C#CCN(CCN1CCN(c2cccc(Cl)c2Cl)CC1)C1CCc2nc(N)sc2C1 (stereo not drawn) | 4.92 | 7.1 | 34.9 | –
CCCN(CCN1CCN(c2ccccc2)CC1)C1CCc2nc(N)sc2C1 (single isomer, unassigned; (+)) [listing 1 of 2 here] | 45 | – | – | –
CCCN(CCN1CCN(c2ccccc2OC)CC1)C1CCc2nc(N)sc2C1 (single isomer, unassigned; (+)) [listing 2 of 2 here] | 2.4 | – | – | –
CCCN(CCN1CCN(c2ccccc2)CC1)C1CCc2nc(N)sc2C1 (stereo in doubt; (-)-31) [listing 2 of 2 here] | 58.6 | – | – | –
CCCN(CCN1CCN(c2ccccc2)CC1)C1CCc2c[nH]nc2C1 (stereo not drawn) | 13.7 | 188 | 2570 | –
CCCN(CCN1CCN(c2ccccc2)CC1)C1CCc2oncc2C1 (stereo not drawn) | 5.9 | 155 | 915 | –
CCCN(CCN1CCN(c2ccccc2)CC1)C1CCc2nnsc2C1 (stereo not drawn) | 4.66 | 160 | 746 | –
CCCN(CCN1CCN(c2cccc(Cl)c2Cl)CC1)C1CCc2nc(N)sc2C1 (stereo in doubt; (+)-33) [listing 2 of 2 here] | – | 12 | 44.2 | –
CCCN(CCN1CCN(c2ccccc2OC)CC1)C1CCc2nc(N)sc2C1 (stereo in doubt; 6b) [listing 2 of 2 here] | – | 5.09 | 166 | –
CCCN(CCN1CCN(c2cccc(Cl)c2Cl)CC1)C1CCc2nc(N)sc2C1 (stereo in doubt; (-)-33) [listing 2 of 2 here] | – | 1.8 | 56.8 | Activity (Rattus norvegicus [6]): 2766; Activity (Rattus norvegicus [7]): 2281; EC50 (D(2) dopamine receptor [8]): 13.4 nM; EC50 (D(3) dopamine receptor [9]): 0.06 nM
CCCN(CCN1CCN(c2ccccc2)CC1)C1CCc2nc(N)sc2C1 (stereo in doubt; 6a) [listing 2 of 2 here] | – | 5.96 | 639 | –
CCCN(CCN1CCN(c2ccccc2)CC1)C1CCc2nc(N)sc2C1 (single isomer, unassigned; (+)) [listing 2 of 2 here] | – | 44 | 1980 | –
C#CCN(CCN1CCN(c2ccccc2OC)CC1)C1CCc2nc(N)sc2C1 (stereo not drawn) | 2.33 | 34.8 | 81.2 | –
CCCN(CCN1CCN(c2ccccc2)CC1)C1CCc2ccc(O)cc2C1 (stereo not drawn) | 91 | 1.56 | 142 | –
CCCN(CCN1CCN(c2ccccc2)CC1)C1CCc2nn[se]c2C1 (stereo not drawn) | 4.64 | 40.7 | 189 | –
